We go through twelve compounds from publication PMC5764437, “Discovery of novel, orally bioavailable, antileishmanial compounds using phenotypic screening” (PLoS Neglected Tropical Diseases, 2017).

Structures can show the parent of a compound that is named as a salt. Where two headings read alike, the source gives them in different places. Starred links: 1 amine or outer side, 2 acyl side, 3 side chain; linkers in the order of their positions; H or OH if unused. Positions of bridges follow the written chain, without caps; N, C: chain ends. Non-standard residues stand in square brackets, D forms with d. Residues, ends and D or L forms follow the SMILES beside them. Chains are numbered I, II in the order given. Actinocin(9to1) = Cc1c2oc3c(C)ccc(C(=O)[*:1])c3nc-2c(C(=O)[*:2])c(N)c1=O; NMeV = CN[C@H](C(=O)O)C(C)C; Sar = CNCC(=O)O

Usually EC50 stands for the midpoint of the concentration-response curve. As usually defined, the fraction unbound is free concentration divided by total concentration. High values mean much free substance, low ones little free substance.

The test system of series [1] is L. mexicana intracellular amastigotes. Put plainly: Growth inhibition of intracellular amastigotes in J774A.1 macrophages (Renilla luciferase luminescence). The settings on record: Leishmania mexicana. In kind it is cell-based. On the procedure: (§1) L. mexicana (MNYZ/BZ/62/M379) or L. donovani (LdBob strain) parasites expressing the Renilla luciferase gene from a rRNA gene locus were used to infect J774A.1 macrophages. Growth of intracellular amastigotes was measured using a luminescence assay, as detailed previously. The growth inhibitor activities of compounds were tested against bloodstream form Lister 427 T. brucei in 96-well plates containing 1 X 10^5 parasites per well in 0.2 ml HMI-11 medium (Gibco/Thermo Fisher). Compounds (2 μl volumes in DMSO) were added to the parasites using serial 3-fold dilutions to cover a range of concentrations from about 10 μM to 1 nM. After 48 h incubation at 37°C under a humidified 5% CO2 atmosphere, 10 μl of 10% Triton X-100 and 100 X stock SYBR Green I (Sigma-Aldrich) in PBS was added and florescence measured (excitation 497 nm; emission 520 nm) after 1 h incubation in the dark using a Spectra Max Gemini XPS fluorimeter (Molecular Devices). Data were log transformed and EC50 values were determined using GraphPad Prism 6 (GraphPad Software). In the absence of growth inhibiting compounds, the parasites grew from an initial density of 5 X 10^5 cells/mL to ~3 X 10^6 cells/mL.
[…]. These were chosen as candidates for further study. From these 230 compounds, we were able to repurchase 113 from commercial vendors. These compounds were characterized for purity by ultra-performance liquid chromatography using ultraviolet spectroscopy and evaporative light scattering detection and identity by mass spectrometry. All validated compounds were profiled for activity against intracellular amastigotes, the disease-causing stage of the life cycle. Intracellular amastigote activity was determined using a strain of L. mexicana in which the Renilla luciferase gene was integrated into the rRNA locus, allowing robust expression for measuring amastigote growth within cultured macrophages. All 113 compounds were applied at 1 μM concentration for 96 h to J774A.1 macrophages infected with L. mexicana luciferase-expressing parasites. […].
Next, we generated dose-response curves for these 55 compounds against intracellular amastigotes and independently against J774A.1 macrophages to establish the relative potency of each compound against the pathogen and its host cell. […]. The nine remaining compounds, each representing a unique chemical scaffold (compounds 1–9, Fig 3), were designated top hits (Fig 1).

In series [2] the test system is J774A.1 macrophages. Put plainly: Cytotoxicity to J774A.1 macrophages (dose-response). In kind it is cell-based. To be noted: for EC50: Mus musculus. On the procedure: Cytotoxicity of compounds to J774.A1 macrophages was determined by dose-response curves as described previously. In the absence of growth inhibitors or DMSO, the macrophages increased in number ~6-fold over 96 h in Minimum Essential Medium, employed for both macrophage infections and the toxicity assays.

The test system of series [3] is L. donovani intracellular amastigotes. As to the kind of experiment: Growth inhibition of intracellular amastigotes in J774A.1 macrophages (Renilla luciferase luminescence). In kind it is cell-based. To be noted: Leishmania donovani. On the procedure: as §1
Series [4] has as its system bloodstream form Lister 427 T. brucei. As to the kind of experiment: Growth inhibition of T. brucei bloodstream forms (SYBR Green I). The settings on record: Trypanosoma brucei, read-out: T. brucei EC50. In kind it is cell-based. The protocol: as §1
A short description of series [5]: Mouse plasma protein binding assay (Rapid Equilibrium Dialysis). In kind it is in vitro ADME. The settings on record: mouse, mouse plasma, pH 7.4; Conc. 4 μM. The protocol: A Rapid Equilibrium Dialysis (RED) Plate (Thermo Scientific, catalog #, PI-90007) was used to determine the percentage of compound binding to mouse plasma proteins (Thermo Scientific, catalog #, 50642085). The positive control for this experiment was propranolol HCl (295.807 g/mol) and the internal standard was warfarin in methanol (2 μM). 10 mM stocks of compound in DMSO were diluted with DMSO and acetonitrile to three different intermediate concentrations: high (2 mM), medium (0.4 mM) and low (0.08 mM) concentration in DMSO:acetonitrile (1:4, v:v). 10 mM stock of propranolol in DMSO were diluted to 0.4 mM concentration in DMSO:acetonitrile (1:4 v:v).
In 10 Eppendorf tubes, the control (10 μL) or each of three compound dilutions (10 μL) were each added to separate aliquots of 990 μL mouse plasma. Potassium phosphate buffer (500 μL, 0.1 M, pH 7.4, 37 °C) was placed in every white well of the RED plate and each plasma/compound mixture was added to each of 3 RED wells (300 μL). The RED plate holds triplicate samples of one control (final concentration […]) and one compound (final concentrations: 20 μM, 4 μM, […]). The RED Plate was sealed and incubated at 37 °C shaking at 250 rpm for 4 hours. After incubation, aliquots (50 μL) from each well in the RED plate were transferred to an assay plate (pION Inc., MA, #110323). In order to create a uniform matrix in every well of the assay plate, plasma (50 μL) was added to each of the wells that already contained buffer and potassium phosphate buffer (50 μL) was added to each of the wells that already contained plasma/compound. Pre-cooled internal standard (300 μL) was added to the assay plate to quench the reaction. The quenched plate was then centrifuged (5810R, Eppendorf, Westbury, NY) at 3000 rpm for 20 minutes.
The percentage of free compound [1] and bound compound [2] was calculated usng the AUC ratio of compound to warfarin from the SIR spectra. For reporting data, % Free = Concentration buffer/Concentration plasma *100 %, and % Bound = 100% - % Free.
For orientation: In equilibrium dialysis free small molecules cross a membrane that holds back macromolecules.

Series [6] deals with L. mexicana promastigotes. Put plainly: High-throughput assay for growth inhibition of promastigotes (SYBR Green I). In kind it is cell-based. On the procedure: Into each well of 384-well microplates (black polystyrene, clear bottom, tissue culture treated, Corning), 15 μl of medium (DME-L [41] plus 100 μM xanthine and 10% heat inactivated fetal calf serum) was dispensed with a liquid dispenser (Matrix Wellmate, Thermo Scientific). Stock compounds, dissolved in DMSO at a fixed concentration of 10 mM, were pin-transferred (V&P Scientific) into the microplate to the desired final concentration using an automated robot arm. To each well of the plates, 15 μl of L. mexicana promastigotes (strain MNYZ/BZ/62/M379, 2 x 10^6/mL) was added with the Wellmate dispenser. Microplates were incubated (Liconic) at 28°C and 5% CO2 for 72 h. After incubation, 10 μl of lysis/dye solution (5X SYBR Green I, 5% Triton X-100 in PBS) was added to each well. Plates were shaken at 1000 rpm, incubated at room temperature for 20 min, and fluorescence signal measured (excitation 485 nm, emission 535 nm) with the Envision plate reader (PerkinElmer).
The initial promastigote screen was performed with the St. Jude Chemical Biology & Therapeutics (CBT) library consisting of 596,414 compounds. Library compounds were filtered by several computational methods to remove those likely to have undesirable physical or biological properties and biased towards oral bioavailability. In this way we focused the collection on compounds most likely to be effective in cellular models of activity, without structural features that would pose a challenge to drug development. In the primary screen, compounds were applied to promastigotes of L. mexicana at a fixed concentration of 10 μM, and parasite proliferation was monitored, following a 72 h incubation, by quantifying total DNA content after lysis using the nucleic acid binding dye SYBR Green I [45].
To confirm the activity of the primary hits and improve confidence that they would be reasonable starting points for drug development, a variety of secondary screens and analyses were employed (Fig 1A). […]. In parallel, mammalian cell growth inhibition was determined using in vitro proliferation assays with normal human fibroblasts (BJ cells). […]. To further triage the hits, we carried out a chemical structure analysis for the 2,703 primary hit compounds utilizing topology mapping and clustering methodology. We identified a wide range of chemotypes, including several scaffolds with potential structure-activity relationships (SARs), based on their dose response activity (Fig 2). Validated hits were then culled by eliminating scaffolds with less favorable drug development properties such as charged planar structures, reactive electrophilic warheads, known pan-assay interference motifs (PAINS), and compounds displaying gross rule of five noncompliance. Finally, we prioritized scaffolds with the possibility of facile chemical modification to generate a substantial number of structural analogs for future SAR and structure-property relationship (SPR) studies.

The mark [7] stands for this setting: J774.A1, intracellular amastigotes in J774A.1 macrophages, mean ± standard deviation, n = 2, read-out: L. mexicana EC50.
[8] abbreviates: J774.A1, host macrophage, tested up to 10 μM, mean ± standard deviation, n = 2, read-out: J774A.1 EC50.
[9] abbreviates: J774.A1, intracellular amastigotes in J774A.1 macrophages, mean ± standard deviation, n = 2, read-out: L. donovani EC50.
Where [10] appears, read: bloodstream form, mean ± standard deviation, n = 2.
Where [11] appears, read: Leishmania mexicana, bracketed references point to earlier reports of antileishmanial activity, read-out: EC50 of known inhibitors identified by the HTS.
[12] abbreviates: bracketed references point to earlier reports of antileishmanial activity, read-out: EC50 of known inhibitors identified by the HTS.

`CC[C@H]1CN2CCc3cc(OC)c(OC)cc3[C@@H]2C[C@@H]1C[C@H]1NCCc2cc(O)c(OC)cc21` [Compound 1, cephaeline]: the EC50 in series [1] (J774.A1, read-out: L. mexicana EC50) is 0.6 ± 0.2 nM; in series [2] (J774.A1, read-out: J774A.1 EC50), 920 ± 900 nM; in series [3] (J774.A1, read-out: L. donovani EC50) it was 2 ± 0.5 nM; in series [4], 800 ± 200 nM.

With `Fc1ccccc1Nc1nc(NCc2ccccc2)c2ccccc2n1` [Compound 2], the EC50 in series [1] (setting [7]) was 44 ± 23 nM; in series [2] (setting [8]) it was above 10000 nM; in series [3] (setting [9]), 130 ± 20 nM; in series [4] (setting [10]), 2000 nM. Also, in series [2] (up to 10 μM), the “Reduction in viability / inhibition of host macrophage J774A.1 in dose-response studies” value is reported as “no reduction in viability”.

`CCN(CC)c1ccc(C2N(C)c3ccccc3N2C)cc1` [Compound 6]: the concentration for a half-maximal effect (EC50) in series [1] (setting [7]) was 5.5 ± 4.9 nM; in series [2] (setting [8]), 3500 ± 700 nM; in series [3] (setting [9]), 6 ± 7 nM; in series [4] (setting [10]) it was 2000 ± 400 nM.

Take `CCCCCCCCn1c2c(c(=N)c3ccccc31)CCC2` [Compound 7]: the EC50 in series [1] (setting [7]) turned out to be 7 ± 6 nM; in series [2] (setting [8]), 700 ± 300 nM; in series [3] (setting [9]) it was 11 ± 8 nM; in series [4] (setting [10]), 460 ± 400 nM.

As to `CC(C)NCC(O)COc1cccc2ccccc12` (centres unmarked) [Propranolol HCl, reference compound], the fraction unbound at 4 h, 4 μM in series [5] is 0.284.

As for `Cc1c2oc3c(C)ccc(C(=O)N[C@@H]4C(=O)N[C@H](C(C)C)C(=O)N5CCC[C@H]5C(=O)N(C)CC(=O)N(C)[C@@H](C(C)C)C(=O)O[C@@H]4C)c3nc-2c(C(=O)N[C@@H]2C(=O)N[C@H](C(C)C)C(=O)N3CCC[C@H]3C(=O)N(C)CC(=O)N(C)[C@@H](C(C)C)C(=O)O[C@@H]2C)c(N)c1=O` [actinomycin D] (I: T[dV]P[Sar][NMeV] / II: T[dV]P[Sar][NMeV]; ester I:1-I:C, II:1-II:C; linker I:N-II:N via Actinocin(9to1)), the EC50 in series [6] (setting [11]) worked out at 360 nM.

With `COc1ccc(C[C@H]2NC[C@H](O)[C@H]2OC(C)=O)cc1` [anisomycin], the EC50 in series [6] (setting [12]) was 580 nM.

On to `CN(C)c1ccc(C(=C2C=CC(=[N+](C)C)C=C2)c2ccc(N(C)C)cc2)cc1` [crystal violet], for which the half-maximal effective concentration (EC50) in series [6] (setting [11]) turned out to be 290 nM.

Regarding `CCN(CC)C(=S)SSC(=S)N(CC)CC` [disulfiram], in series [6] (setting [11]), the concentration giving a half-maximal response (EC50) was found to be 500 nM.

`N=C(N)c1ccc(OCCCCCOc2ccc(C(=N)N)cc2)cc1` [pentamidine]: the “Inhibition of proliferation (HTS positive control)” value in series [6] (72 h, primary screen conditions) came out at 100%. The EC50 in series [6] (Leishmania mexicana, 72 h, median over HTS plates, interquartile range 1.7–3.1, read-out: EC50 of the control per screening plate (median)) came out at 2300 nM.

Take `CN(C)C(=S)SSC(=S)N(C)C` [thiram]: the EC50 in series [6] (setting [11]) was 1770 nM.

avicin: the EC50 in series [6] (setting [12]) amounted to 1500 nM.
